Source: patent US20260242365A1, “USES OF CERTAIN 1,4-OXAZEPANE-2-CARBOXAMIDES AS DPP1 INHIBITORS” (Insmed Incorporated, priority 2023, published 2026)

Molecular target: T1, mouse DPP1 (Mus musculus, UniProt P97821)
T1 construct: Test articles were applied to active mouse DPP1 enzyme; purchased R&D Systems
Assay: Mouse DPP1 Enzyme IC50 Assay
Type: biochemical
Conditions: active mouse DPP1 enzyme, H-Gly-Arg-AMC substrate
Description: Test articles were applied to active mouse DPP1 enzyme (R&D Systems; Minneapolis, MN) in Assay Buffer (50 mM MES pH 5.5, 50 mM NaCl, 5 mM DTT) in a total reaction volume of 125 μL. 25 μL of compound in Assay Buffer plus 5% DMSO was first added to 50 μL of active mouse DPP1 enzyme at a concentration of […] and allowed to pre-incubate for 10 minutes at 37° C. after which 50 μL of 1000 μM H-Gly-Arg-AMC substrate (Bachem; St. Torrance, CA) was added, giving final substrate concentration of 400 μM and a final DMSO concentration of 1%. Substrate cleavage was measured for 90 minutes at 37° C., with fluorescence at Excitation/Emission 350/450 nm measured every 5 minutes. DPP1 concentration was interpolated based on its activity relative to a standard curve of recombinant active mouse DPP1 enzyme. IC50 values for each compound were calculated via the XLFit (IDBS Version 5.3.1.3) Add-On to Microsoft Excel using the four parameter fit equation y= (A+ ((B−A)/(1+ ((C/x)^D)))), which appears as equation number 205 (4 Parameter Logistic Model or Sigmoidal Dose-Response Model) in XLFit. Default constraints were used for each Parameter. IC50 was defined as the compound concentration at which 50% of enzyme activity was inhibited when compared to the no-compound control.

T1 sequence (P97821 25-134 limits assumed): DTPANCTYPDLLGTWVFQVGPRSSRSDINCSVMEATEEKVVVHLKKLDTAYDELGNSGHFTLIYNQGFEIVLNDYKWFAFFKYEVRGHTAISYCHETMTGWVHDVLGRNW
T1 sequence (P97821 231-393 limits assumed): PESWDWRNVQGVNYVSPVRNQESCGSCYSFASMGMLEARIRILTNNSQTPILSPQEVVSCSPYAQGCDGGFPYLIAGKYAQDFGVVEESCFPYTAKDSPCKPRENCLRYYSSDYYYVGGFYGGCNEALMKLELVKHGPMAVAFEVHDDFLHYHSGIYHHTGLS
T1 sequence (P97821 394-462 limits assumed): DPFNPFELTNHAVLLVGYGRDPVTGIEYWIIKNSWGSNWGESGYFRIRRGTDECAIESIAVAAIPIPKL

Cn1c(=O)oc2ccc(-c3ccc(C[C@@H](C#N)NC(=O)[C@@H]4CNCCCO4)c(F)c3)cc21 [INSM-204]
IC50: 5.6 ± 0.4 nM
